Reference: ChEMBL document CHEMBL1687779, “Sodium nitrite-mediated killing of the major cystic fibrosis pathogens Pseudomonas aeruginosa, Staphylococcus aureus, and Burkholderia cepacia under anaerobic planktonic and biofilm conditions” (2010)
Activity calls are given as the source filed them. The rule behind the calls is not given here.

Assays:
Pseudomonas aeruginosa [1] = experiment: Antimicrobial activity against non-mucoid Pseudomonas aeruginosa PAO1 after 24 hrs aerobic condition; settings: PAO1, 24 h
Staphylococcus aureus [2] = experiment: Antimicrobial activity against Staphylococcus aureus USA300 after 24 hrs aerobic condition; settings: USA300, 24 h
Pseudomonas aeruginosa [3] = experiment: Antimicrobial activity against mucoid Pseudomonas aeruginosa FRD1 harboring mucA22 mutant after 24 hrs under anaerobic condition; settings: FRD1, 24 h
Pseudomonas aeruginosa [4] = experiment: Antimicrobial activity against non-mucoid Pseudomonas aeruginosa PAO1 after 24 hrs anaerobic condition; settings: PAO1, 24 h
Staphylococcus aureus [5] = experiment: Antimicrobial activity against Staphylococcus aureus USA300 after 24 hrs anaerobic condition; settings: USA300, 24 h
Pseudomonas aeruginosa [6] = experiment: Antimicrobial activity against mucoid Pseudomonas aeruginosa FRD1 harboring mucA22 mutant after 24 hrs under aerobic condition; settings: FRD1, 24 h
Pseudomonas aeruginosa [7] = settings: FRD1, 64 ug/ml
Description: Antimicrobial activity against mucoid Pseudomonas aeruginosa FRD1 harboring mucA22 mutant assessed as inhibition of bacterial cell growth at 64 ug/ml after 24 hrs under anaerobic condition

Pseudomonas aeruginosa [8] = settings: FRD1, 128 ug/ml
Description: Antimicrobial activity against mucoid Pseudomonas aeruginosa FRD1 harboring mucA22 mutant assessed as inhibition of bacterial cell growth at 128 ug/ml after 24 hrs under anaerobic condition

Pseudomonas aeruginosa [9] = settings: FRD1, 256 ug/ml
Description: Antimicrobial activity against mucoid Pseudomonas aeruginosa FRD1 harboring mucA22 mutant assessed as 2 log inhibition of bacterial cell growth at 256 ug/ml after 2 days under anaerobic condition

Pseudomonas aeruginosa [10] = settings: PAO1, 64 to 256 ug/ml
Description: Antimicrobial activity against non-mucoid Pseudomonas aeruginosa PAO1 assessed as inhibition of bacterial cell growth at 64 to 256 ug/ml after 24 hrs under anaerobic condition

Staphylococcus aureus [11] = settings: USA300, 512 ug/ml
Description: Antimicrobial activity against Staphylococcus aureus USA300 assessed as inhibition of bacterial cell growth at 512 ug/ml after 24 hrs under anaerobic condition

Staphylococcus aureus [12] = settings: USA300, 1024 ug/ml
Description: Antimicrobial activity against Staphylococcus aureus USA300 assessed as 2 log inhibition of bacterial cell growth at 1024 ug/ml after 2 days under anaerobic condition

Staphylococcus aureus [13] = settings: USA300, 2048 ug/ml
Description: Antimicrobial activity against Staphylococcus aureus USA300 assessed as 4 log inhibition of bacterial cell growth at 2048 ug/ml after 4 days under anaerobic condition

Burkholderia cepacia [14] = settings: 128 ug/ml
Description: Antimicrobial activity against Burkholderia cepacia isolated from cystic fibrosis patient assessed as inhibition of bacterial cell growth at 128 ug/ml after 48 hrs under anaerobic condition

Burkholderia cepacia [15] = experiment: microbe, parasite or virus in culture; settings: 24 h
Description: Antimicrobial activity against Burkholderia cepacia isolated from cystic fibrosis patient after 24 hrs aerobic condition

O=N[O-].[Na+] [SODIUM NITRITE]
MIC (Pseudomonas aeruginosa [1]): 2050 µg/mL
MIC (Staphylococcus aureus [2]): 4100 µg/mL
MIC (Pseudomonas aeruginosa [3]): 128 µg/mL
MIC (Pseudomonas aeruginosa [4]): 512 µg/mL
MIC (Staphylococcus aureus [5]): 1020 µg/mL
MIC (Pseudomonas aeruginosa [6]): 1020 µg/mL
inhibition (Pseudomonas aeruginosa [7]): Active
inhibition (Pseudomonas aeruginosa [8]): Active
inhibition (Pseudomonas aeruginosa [9]): Active
inhibition (Pseudomonas aeruginosa [10]): Active
inhibition (Staphylococcus aureus [11]): Active
inhibition (Staphylococcus aureus [12]): Active
inhibition (Staphylococcus aureus [13]): Active
inhibition (Burkholderia cepacia [14]): Active
MIC (Burkholderia cepacia [15]): 512 µg/mL
